# Values quoted from earlier work as cited in patent publication US9693945B1, “Method of solubilizing a composition of a cleaned photochromic dye suitable for use on human skin” (priority 2016, dated 2017).
# System: Salmonella typhimurium
# Conditions: background on compounds formerly used in commercial products
row,SMILES,Ames test outcome (identified as potential carcinogen)
1,NC(=O)/C(=C\c1ccc([N+](=O)[O-])o1)c1ccco1 [furylfuramide],positive
2,"O=P(OCC(Br)CBr)(OCC(Br)CBr)OCC(Br)CBr (centres unmarked) [tris (2,3-dibromopropyl) phosphate]",positive
